Structures can show the parent of a compound that is named as a salt.
Tested on: MTT (mouse pheochromocytoma)
Assay: IC50 of cell viability (ATP content)
Details: (24 or 48 h)
In short: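 Library compounds in DMSO (23 nl by pintool, 8 concentrations, final 0.5 nM to 46 µM) were applied for 24 or 48 hrs to MTT mouse pheochromocytoma cells that had been cultured overnight at 37°C, 5% CO2 in white 1536-well plates. Cell viability was measured by CellTiter-Glo ATP luminescence, read after 15 minutes, with positive-control wells set at 100% and DMSO wells at 0%. A four-parameter logistic fit of the normalised signals yielded the IC50.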

IC50 of cell viability [µM] | Compound
> 46 | C/C(=C(/CCOC(=O)c1ccccc1)SS/C(CCOC(=O)c1ccccc1)=C(\C)N(C=O)Cc1cnc(C)nc1N)N(C=O)Cc1cnc(C)nc1N [Bisbentiamine]
> 46 | [O]=[Bi][O]C(=O)[O][Bi]=[O] [Bismuth subcarbonate]
> 46 | O=C1[O][Bi]([OH])[O]c2ccccc21 [Bismuth subsalicylate]
> 46 | CC(C)NCC(O)COc1ccc(COCCOC(C)C)cc1 (centres undefined) [Bisoprolol hemifumarate salt]
> 46 | CC(=O)Oc1ccc(C2(c3ccc(OC(C)=O)cc3)Oc3ccccc3NC2=O)cc1 [Bisoxatin Acetate]
> 46 | CC(C)(c1ccc(O)cc1)c1ccc(O)cc1 [Bisphenol A]
> 46 | [O-][S+](c1cc(Cl)cc(Cl)c1O)c1cc(Cl)cc(Cl)c1O [Bithionoloxide]
> 46 | S=C=Nc1ccc(N=C=S)cc1 [Bitoscanate]
> 46 | OB(O)O [Boric acid]
> 46 | COc1cc(Nc2c(C#N)cnc3cc(OCCCN4CCN(C)CC4)c(OC)cc23)c(Cl)cc1Cl [Bosutinib Methanoate]
> 46 | CC[N+](C)(C)Cc1ccccc1Br.Cc1ccc(S(=O)(=O)[O-])cc1 [Bretylium tosylate]
> 46 | CCN[C@@H]1CN(CCCOC)[S+](=O)([O-])c2sc([S+](N)(=O)[O-])cc21 [Brinzolamide]
> 46 | O=C1c2ccccc2C(=O)C1c1ccc(Br)cc1 [Bromindione]
> 46 | O=C(CCCN1CCC(O)(c2ccc(Br)cc2)CC1)c1ccc(F)cc1 [Bromperidol]
> 46 | Cc1ccc2c(Br)cc(Br)c(O)c2n1 [Broquinaldol]
> 46 | OC[C@H]1O[C@H](C[C@@H]1O)N2\C=C(Br)/C(=O)NC2=O [Broxuridina]
> 46 | CCOc1ccc(NC(=O)CC(C)O)cc1 (centres undefined) [Bucetin]
> 46 | CC(C)(S)C(=O)NC(CS)C(=O)O (centres undefined) [Bucillamine]
> 46 | CC(C)(S)C(=O)N[C@H](CS)C(=O)O [Bucillamine]
> 46 | CC(C)(C)c1ccc(CN2CCN([C@H](c3ccccc3)c3ccc(Cl)cc3)CC2)cc1 [Buclodin]
> 46 | CCC[C@@H]1O[C@@H]2C[C@@H]3[C@@H]4CC\C5=C\C(=O)\C=C/[C@@]5(C)[C@H]4[C@H](O)C[C@@]3(C)[C@]2(O1)C(=O)CO [Budesonide]
> 46 | CCCCOc1ccc(CC(=O)NO)cc1 [Bufexamac]
> 46 | COc1cc(OC)c(C(=O)CCCN2CCCC2)c(OC)c1 [Buflomedil hydrochloride]
> 46 | CCCCNc1cc(C(=O)O)cc([S+](N)(=O)[O-])c1Oc1ccccc1 [Bumetanide]
> 46 | Cc1cc(-n2nc3ccc(Cl)cc3n2)c(O)c(C(C)(C)C)c1 [Bumetrizole]
> 46 | C[S+](=O)([O-])OCCCCO[S+](C)(=O)[O-] [Busulfan]
> 46 | CCCCN(CCCC)CCCOC(=O)c1ccc(N)cc1 [Butacaine]
> 46 | CCC(C(=O)OCCOCCN(CC)CC)c1ccccc1 (centres undefined) [Butamirate citrate]

IC50 of cell viability [µM] | Compound
> 46 | CN(Cc1ccc(C(C)(C)C)cc1)Cc1cccc2ccccc12 [Butenafina]
> 46 | OC(C#CCN1CCCC1)(c1ccccc1)c1ccccc1 [Butinolina]
> 46 | Clc1ccc(CC[C@H](Cn2ccnc2)Sc2c(Cl)cccc2Cl)cc1 [Butoconazole nitrate]
> 46 | Cc1cc(C(C)(C)C)c(O)c(C(C)(C)C)c1 [Butylated hydroxytoluene]
> 46 | CCCCOC(=O)c1ccc(O)cc1 [Butylparaben]
> 46 | Cc1cc(-c2ccc(/N=N/c3ccc4c([S+](=O)([O-])O)cc([S+](=O)([O-])O)c(N)c4c3O)c(C)c2)ccc1/N=N/c1ccc2c([S+](=O)([O-])O)cc([S+](=O)([O-])O)c(N)c2c1O [C.I. Direct Blue 53]
> 46 | OC(=O)CN(CC(O)=O)CC1=CC/2=C(OC/3=C/C(=O)/C(=C\C3=C2C4=CC=CC=C4C(O)=O)CN(CC(O)=O)CC(O)=O)C=C1O [CALCEIN]
> 46 | O=C(Nc1ccc(C(=O)O)c(O)c1)c1ccccc1 [CALCII BENZAMIDOSALICYLAS]
> 46 | C=C1/C(=C\C=C2/CCC[C@]3(C)[C@@H]([C@H](C)/C=C/[C@@H](O)C4CC4)CC[C@@H]23)C[C@@H](O)C[C@@H]1O [CALCIPOTRIENE]
> 46 | C=C1/C(=C\C=C2/CCC[C@]3(C)[C@@H]([C@H](C)CCCC(C)(C)O)CC[C@@H]23)C[C@@H](O)C[C@@H]1O [CALCITRIOL]
> 46 | CC(C)(CO)C(O)C(=O)NCCCC(=O)[O-] (centres undefined) [CALCIUM HOPANTENATE]
> 46 | CN(C)C(=O)COC(=O)Cc1ccc(OC(=O)c2ccc(NC(=N)N)cc2)cc1 [CAMOSTAT MESILATE]
> 46 | C=C1[C@@H]2CC[C@H](C2)C1(C)C [CAMPHENE]
> 46 | C[C@@]12CCC(=O)/C=C1/C=C\C3C2CC[C@]4(C)C3CC[C@@]45CCC(=O)O5 (some centres undefined) [CANRENONE]
> 46 | CC1=C(/C=C/C(C)=C/C=C/C(C)=C/C=C/C=C(C)/C=C/C=C(C)/C=C/C2=C(C)C(=O)CCC2(C)C)C(C)(C)CCC1=O [CANTHAXANTHIN (euglenanone)]
> 46 | N=C1NCCC(C2NC(=O)/C(=C/NC(N)=O)NC(=O)C(CNC(=O)CC(N)CCCN)NC(=O)C(CO)NC(=O)C(N)CNC2=O)N1 (centres undefined) [CAPREOMYCIN SULFATE]
> 46 | C[C@H](CS)C(=O)N1CCC[C@H]1C(=O)O [CAPTOPRIL]
> 46 | CCN(CC)CCOC(=O)C1(c2ccccc2)CCCC1 [CARAMIPHEN EDISYLATE]
> 46 | COC(=O)N/N=C/c1c[n+]([O-])c2ccccc2[n+]1[O-] [CARBADOX]
> 46 | CC(C[N+](C)(C)C)OC(N)=O (stereo not drawn) [CARBAMYL-beta-METHYLCHOLINE]
> 46 | C[N+](C)(C)CCOC(N)=O [CARBAMYLCHOLINE]
> 46 | CN1C2=CC(=O)/C(=N\NC(N)=O)C=C2CC1S(=O)(=O)[O-] (centres undefined) [CARBAZOCHROME SODIUM SULFONATE]
> 46 | CC1(C)SC2C(NC(=O)C(C(=O)[O-])c3ccccc3)C(=O)N2C1C(=O)[O-].[Na+].[Na+] (centres undefined) [CARBENICILLIN DISODIUM]
> 46 | CCN(CC)CCOCCOC(=O)C1(c2ccccc2)CCCC1 [CARBETAPENTANE]
> 46 | C[C@@](Cc1ccc(O)c(O)c1)(NN)C(=O)O [CARBIDOPA]
> 46 | NC(CSCC(=O)O)C(=O)O (centres undefined) [CARBOCISTEINE]
> 46 | C=CC(=O)O [CARBOMER 940]

Compound | IC50 of cell viability [µM]
CC(C)NCC(O)COc1ccc(COCCOC(C)C)cc1.CC(C)NCC(O)COc1ccc(COCCOC(C)C)cc1.O=C(O)/C=C/C(=O)O (centres undefined) [Bisoprolol hemifumarate salt] | > 46
Cc1c(N)nc([C@@H](CC(N)=O)NC[C@H](N)C(N)=O)nc1C(=O)N[C@H](C(=O)N[C@H](C)[C@H](O)[C@H](C)C(=O)N[C@@H](C(=O)NCCc1nc(-c2nc(C(=O)NCCC[S+](C)C)cs2)cs1)[C@H](C)O)[C@H](O[C@@H]1O[C@@H](CO)[C@@H](O)[C@H](O)[C@@H]1O[C@H]1O[C@H](CO)[C@H](O)[C@H](OC(N)=O)[C@@H]1O)c1c[nH]cn1 [Bleomycin Sulfate] | > 46
O=C(Nc1ccccc1-c1ccc(Cl)cc1)c1cccnc1Cl [Boscalid] | > 46
CC(C)(C)OC(=O)c1ncn2c1[C@@H]1CCCN1C(=O)c1c(Br)cccc1-2 [Bretazenil] | > 46
CC(C)C(Br)C(=O)NC(N)=O (centres undefined) [Bromisovalum] | > 46
CC1=NN=C2C\N=C(C3=CC=CC=C3Cl)/C4=C(SC(=C4)Br)[N]12 [Brotizolam] | > 46
CN(C)CCc1c[nH]c2ccc(O)cc12 [Bufotenine] | > 46
COC12CCC3(CC1[C@](C)(O)C(C)(C)C)[C@H]1Cc4ccc(O)c5c4[C@@]3(CCN1CC1CC1)C2O5 (some centres undefined) [Bupenorphine] | > 46
C[C@H](NC(C)(C)C)C(=O)c1cccc(Cl)c1 [Bupropion hydrochloride] | > 46
CCCCNC(C)(C)[PH](=O)O [Butafosfan] | > 46
NCC[C@H](O)C(=O)N[C@@H]1C[C@@H](N)[C@@H](O[C@@H]2O[C@@H](CN)[C@@H](O)[C@@H](O)[C@H]2N)[C@@H](O[C@@H]2O[C@@H](CO)[C@@H](O)[C@H]2O)[C@H]1O [Butirosin disulfate salt] | > 46
CCCC(=O)OC(C(Cl)(Cl)Cl)P(=O)(OC)OC (centres undefined) [Butonate] | > 46
CCCCOC(=O)c1ccccc1C(=O)OCc1ccccc1 [Butyl benzyl phthalate] | > 46
C=CCN1CC(C(=O)N(CCCN(C)C)C(=O)NCC)CC2c3cccc4[nH]cc(c34)CC21 (centres undefined) [CABERGOLINE] | > 46
